Experimental data taken from PubChem BioAssay AID687040 (Broad Institute, 2013).
Activity calls are given as the source filed them.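 Rule for the calls: active = fitted curve hits 40% activity increase at a dose no higher than the top valid tested dose; inconclusive = flat curve at 30 to 70% activity, or poor fit; inactive = the rest.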

Test system: Huh7 psiCHECK-miR122 Renilla luciferase reporter, 48 h
Assay: miR-122 suppression via Renilla sensor signal rise – cell-based, Huh7-psiCHECK-miR122, luminescence, dry powder, dose response (AID 687040)
Conditions: not given

`Cc1ccc(S(=O)(=O)Nc2ccc3c4c(cccc24)CC3)c(C)c1` and `Cc1cccc(NS(=O)(=O)c2cc3c(cc2C)NC(=O)CO3)c1` are within 1.5-fold of each other in AC40: 3660 nM for the first, 2650 nM for the second.

First: CC1CCCCN1C(=O)c1cc2nc(-c3ccccc3)cc(-c3ccccc3)n2n1 (centres undefined)
Second: CCOc1ccccc1N1CCN(C(=O)c2cccc(-c3ccc(O)cc3)c2)CC1
The AC40 of the first is higher: 925 nM for the first, less than 260 nM for the second.

Compared with `COc1ccc(S(=O)(=O)Nc2ccc(OC(F)F)cc2)c2cccnc12`, `Cc1ccc(C)c(S(=O)(=O)Nc2ccc(-n3cnnn3)cc2)c1` is 5.3-fold lower in AC40: 1430 nM for the first, 271 nM for the second.

`COc1ccc(S(=O)(=O)NCCN2CCOCC2)c2ccccc12` and `O=C(CN1CCOCC1)Nc1ccc(Br)cc1C(=O)c1ccccc1` are within 1.5-fold of each other in AC40: 1600 nM for the first, 1430 nM for the second.

Going from `Cc1cc(C)c(S(=O)(=O)NC2CC3CCC2C3)c(C)c1` (centres undefined) to `Cc1cc(C)c(C)c(S(=O)(=O)NC2CCCCC2)c1C`, the AC40 falls from 792 nM to 507 nM (1.6-fold).

First: CCOc1ccc(C)cc1S(=O)(=O)NC1CCCCC1
Second: CCOc1cc(C)c(S(=O)(=O)NC2CCCCC2)cc1C
The AC40 of the first is 3.1-fold lower: 394 nM for the first, 1240 nM for the second.

First: COc1ccc(C)cc1NS(=O)(=O)c1ccc2c(c1)N(C)CCO2
Second: Cc1ccc(C)c(S(=O)(=O)Nc2ccc3cn[nH]c3c2)c1
The AC40 of the first is 1.7-fold higher: 2650 nM for the first, 1540 nM for the second.

Going from `O=C(Nc1ccc(N2CCOCC2)c(S(=O)(=O)Nc2cc(Cl)ccc2Cl)c1)c1cccnc1` to `Cc1ccc(NS(=O)(=O)c2cc(C(=O)NCc3ccccn3)ccc2Cl)cc1C`, the AC40 rises from 761 nM to 2270 nM (3-fold).

Compared with `Cc1ccc(C(=O)C2Oc3ccccc3C3CC(c4ccc(C)cc4)=NN23)cc1` (centres undefined), `CN1C(=O)c2cccc3c(S(=O)(=O)NCCc4ccccc4)ccc1c23` is 2.8-fold lower in AC40: 831 nM for the first, 300 nM for the second.

Compared with `O=S(=O)(c1ccc2c(c1)CCCN2)N1CCC[C@@H]2CCCC[C@H]21`, `Cc1cc(S(=O)(=O)NC2CCCCC2)c(C)s1` is 3.4-fold lower in AC40: 6940 nM for the first, 2040 nM for the second.

`COC(=O)c1cc(S(=O)(=O)Nc2cc(OC)cc(OC)c2)cn1C` and `COc1cc(C)c(C(C)C)cc1S(=O)(=O)n1cnc(C)c1` are within 1.5-fold of each other in AC40: 3190 nM for the first, 4600 nM for the second.

Going from `S=C(Nc1ccc(Cl)cc1Cl)NC1CCCCC1` to `COc1ccc(C(C)(C)C)cc1S(=O)(=O)NCC1CCCO1` (centres undefined), the AC40 falls from 4180 nM to 456 nM (9.2-fold).

Compared with `Nc1c(S(=O)(=O)c2cccs2)c2nc3ccccc3nc2n1Cc1ccccc1`, `CCN(CC)C(=O)CN(c1cc2c(cc1OC)oc1ccccc12)S(=O)(=O)c1ccccc1` is 1.8-fold higher in AC40: 1250 nM for the first, 2290 nM for the second.

Going from `Cc1cc(Cl)c(Cl)cc1S(=O)(=O)NCCCn1ccnc1` to `Cc1cc(C(C)(C)C)cc(S(=O)(=O)NCCO)c1C`, the AC40 falls from 1890 nM to 1260 nM (1.5-fold).

`Cc1cc(C)c(S(=O)(=O)NC(C)C)c(C)c1-n1cnnn1` and `Cc1ccc(C(C)C)cc1S(=O)(=O)Nc1cccnc1` are within 1.5-fold of each other in AC40: 1720 nM for the first, 1790 nM for the second.

Compared with `CCCCNS(=O)(=O)c1ccc2nc(-c3cccnc3)cc(C(=O)NC(C)CC)c2c1` (centres undefined), `COc1cccc(N2CCN(C(=O)c3oc4ccccc4c3NC(=O)CCc3cc(OC)no3)CC2)c1` is 8.7-fold higher in AC40: 274 nM for the first, 2390 nM for the second.

With `O=C(Nc1ccc2ccccc2c1)c1ccc(Cl)cc1Cl` the AC40 was > 35000 nM (inactive).

Test system: not listed separately
Assay: as above
Conditions: Huh7 psiCHECK-miR122 Renilla luciferase reporter, 48 h; at 35 µM (top of the series)

In the case of `O=S(=O)(Nc1cccc2[nH]ncc12)c1ccc(F)c2ncccc12`, the activity increase (miR-122 inhibition) is reported as 6.99% (inactive).
